Experimental findings from patent US20240383904A1, “HETEROCYCLIC COMPOUNDS” (Hoffmann-La Roche Inc., priority 2021, published 2024) are described below.

The target in one assay is T1, MAGL (Homo sapiens, UniProt Q99685).
T1 sequence (Q99685 1-303): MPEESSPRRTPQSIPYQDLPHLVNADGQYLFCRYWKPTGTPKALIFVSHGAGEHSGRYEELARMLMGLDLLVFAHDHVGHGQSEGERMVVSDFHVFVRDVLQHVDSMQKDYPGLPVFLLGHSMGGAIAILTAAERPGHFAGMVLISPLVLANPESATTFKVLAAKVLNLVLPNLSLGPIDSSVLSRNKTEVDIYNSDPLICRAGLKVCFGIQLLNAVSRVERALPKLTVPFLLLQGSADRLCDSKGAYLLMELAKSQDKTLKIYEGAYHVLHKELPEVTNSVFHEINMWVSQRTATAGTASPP
The assay can be described thus: 2-AG assay: MAGL inhibitory activity by hydrolysis of 2-arachidonoylglycerol to arachidonic acid, followed by mass spectrometry. It counts as biochemical. To be noted: 15 min preincubation, 30 min reaction at RT, 8 μM 2-arachidonoylglycerol. From the text:
Compounds of formula (I) were profiled for MAGL inhibitory activity by determining the enzymatic activity by following the hydrolysis of the natural substrate 2-arachidonoylglycerol (2-AG) resulting in arachidonic acid, which can be followed by mass spectrometry. This assay is hereinafter abbreviated “2-AG assay”.
Compounds of formula (I) were profiled for MAGL inhibitory activity by determining the enzymatic activity by following the hydrolysis of the natural substrate 2-arachidonoylglycerol (2-AG) resulting in arachidonic acid, which can be followed by mass spectrometry. This assay is hereinafter abbreviated “2-AG assay”. The 2-AG assay was carried out in 384 well polypropylene assay plates. Compound dilutions were made in 100% DMSO in a polypropylene plate in 3-fold dilution steps to give a final concentration range in the assay from 12.5 μM to […]. Compound dilutions were added to MAGL protein in assay buffer (50 mM TRIS, 1 mM EDTA, 0.01% (v/v) Tween-20, 2.5% (v/v) DMSO). After shaking, the plate was incubated for 15 min at RT. To start the reaction, 2-arachidonoylglycerol in assay buffer was added. The final concentrations in the assay was […] for MAGL protein and 8 μM 2-arachidonoylglyerol. After shaking and 30 min incubation at RT, the reaction was quenched by the addition of two assay volumes of acetonitrile containing 4 μM of d8-arachidonic acid. The amount of arachidonic acid formed was traced by an online SPE system (Agilent Rapidfire) coupled to a triple quadrupole mass spectrometer. A C18 SPE cartridge (Agilent G9205A) was used in an acetonitrile/water liquid setup. The mass spectrometer was operated in negative electrospray mode following the mass transitions 303.1→259.1 for arachidonic acid and 311.1→267.0 for d8-arachidonic acid. The activity of the compounds was calculated based on the ratio of intensities [arachidonic acid/d 8-arachidonic acid].
On to `O=C1NC2(CO1)CN(C(=O)N1CC3(CC(Cc4ccc(Cl)cn4)C3)C1)C2` [Example 20, 2-[6-[(5-chloro-2-pyridyl)methyl]-2-azaspiro[3.3]heptane-2-carbonyl]-7-oxa-2,5-diazaspiro[3.4]octan-6-one], for which the midpoint of inhibition, the IC50, lay at 0.31 nM. This counts as sub-nanomolar.
Turning to `O=C1NC2(CO1)CN(C(=O)N1CC3(CC(Cc4cccc(S(=O)(=O)C(F)(F)F)c4)C3)C1)C2` [Example 21, 2-[6-(3-triflylbenzyl)-2-azaspiro[3.3]heptane-2-carbonyl]-7-oxa-2,5-diazaspiro[3.4]octan-6-one], the IC50 worked out at 0.01 nM. This IC50 is about 31-fold lower than that of the compound before.
In turn, `O=C1NCC2(CN(C(=O)N3CC4(CC(Cc5ccc(C(F)(F)F)cc5F)C4)C3)C2)N1` [Example 25, 2-[6-[2-fluoro-4-(trifluoromethyl)benzyl]-2-azaspiro[3.3]heptane-2-carbonyl]-2,5,7-triazaspiro[3.4]octan-6-one] returned an IC50 of 0.05 nM. Compared with the last compound, the IC50 is about 5-fold higher.
Still for that read-out and setting: next, `O=C1NC2(CO1)CN(C(=O)N1CC3(CC(Cc4ccc(OC(F)(F)F)cn4)C3)C1)C2` [Example 26, 2-[6-[[5-(trifluoromethoxy)-2-pyridyl]methyl]-2-azaspiro[3.3]heptane-2-carbonyl]-7-oxa-2,5-diazaspiro[3.4]octan-6-one]: 0.11 nM; `CS(=O)(=O)c1cc(C(F)(F)F)ccc1CC1CC2(C1)CN(C(=O)N1CC3(COC(=O)N3)C1)C2` [Example 27, 2-[6-[2-mesy1-4-(trifluoromethyl)benzyl]-2-azaspiro[3.3]heptane-2-carbonyl]-7-oxa-2,5-diazaspiro[3.4]octan-6-one]: 0.14 nM.
`O=C1NC2(CO1)CN(C(=O)N1CC3(CC(Cc4ncc(C(F)(F)F)cc4F)C3)C1)C2` [Example 28, 2-[6-[[3-fluoro-5-(trifluoromethyl)-2-pyridyl]methyl]-2-azaspiro[3.3]heptane-2-carbonyl]-7-oxa-2,5-diazaspiro[3.4]octan-6-one] showed an IC50 of 0.23 nM.
Still for that read-out and setting: next, `CS(=O)(=O)c1cc(CC2CC3(C2)CN(C(=O)N2CC4(COC(=O)N4)C2)C3)ccc1C(F)(F)F` [Example 29, 2-[6-[3-mesyl-4-(trifluoromethyl)benzyl]-2-azaspiro[3.3]heptane-2-carbonyl]-7-oxa-2,5-diazaspiro[3.4]octan-6-one]: 0.34 nM; `CS(=O)(=O)c1cc(F)cc(CC2CC3(C2)CN(C(=O)N2CC4(COC(=O)N4)C2)C3)c1` [Example 30, 2-[6-(3-fluoro-5-mesyl-benzyl)-2-azaspiro[3.3]heptane-2-carbonyl]-7-oxa-2,5-diazaspiro[3.4]octan-6-one]: 0.45 nM; `O=C1NC2(CO1)CN(C(=O)N1CC3(CC(Cc4ccc(F)cn4)C3)C1)C2` [Example 31, 2-[6-[(5-fluoro-2-pyridyl)methyl]-2-azaspiro[3.3]heptane-2-carbonyl]-7-oxa-2,5-diazaspiro[3.4]octan-6-one]: 0.61 nM.
`O=C1NC2(CO1)CN(C(=O)N1CC3(CC(Cc4cnc(C(F)(F)F)nc4)C3)C1)C2` [Example 32, 2-[6-[[2-(trifluoromethyl)pyrimi-din-5-y1]methyl]-2-azaspiro[3.3]heptane-2-carbonyl]-7-oxa-2,5-diazaspiro[3.4]octan-6-one] gave an IC50 of 0.67 nM. This IC50 and that of the compound before are within 1.5-fold of each other.
The same measure, in the same setting: next, `CS(=O)(=O)c1cccc(CC2CC3(C2)CN(C(=O)N2CC4(COC(=O)N4)C2)C3)c1` [Example 33, 2-[6-(3-mesylbenzyl)-2-azaspiro[3.3]heptane-2-carbonyl]-7-oxa-2,5-diazaspiro[3.4]octan-6-one]: 0.87 nM; `O=C1NCC2(CN(C(=O)N3CC4(CC(Cc5ccc(F)cc5C(F)(F)F)C4)C3)C2)N1` [Example 34, 2-[6-[4-fluoro-2-(trifluoromethyl)benzyl]-2-azaspiro[3.3]heptane-2-carbonyl]-2,5,7-triazaspiro[3.4]octan-6-one]: 1.09 nM; `CS(=O)(=O)c1cc(C(F)(F)F)ccc1CC1CC2(C1)CN(C(=O)N1CC3(CCC(=O)N3)C1)C2` [Example 35, 2-[6-[2-mesyl-4-(trifluoromethyl)benzyl]-2-azaspiro[3.3]heptane-2-carbonyl]-2,5-diazaspiro[3.4]octan-6-one]: 1.43 nM.
Same read-out and setting: in the case of `O=C1NC2(CO1)CN(C(=O)N1CC3(CC(Cc4ccc(C(F)(F)F)nn4)C3)C1)C2` [Example 36, 2-[6-[[6-(trifluoromethyl)pyrida-zin-3-yl]methyl]-2-azaspiro[3.3]heptane-2-carbonyl]-7-oxa-2,5-diazaspiro[3.4]octan-6-one] it was 1.43 nM; in that of `O=C1NC2(CO1)CN(C(=O)N1CC3(CC(Cc4cncc(F)c4)C3)C1)C2` [Example 37, 2-[6-[(5-fluoro-3-pyridyl)methyl]-2-azaspiro[3.3]heptane-2-carbonyl]-7-oxa-2,5-diazaspiro[3.4]octan-6-one], 1.91 nM; in that of `O=C1NCC2(CN(C(=O)N3CC4(CC(Cc5ccc(F)cc5F)C4)C3)C2)N1` [Example 38, 2-[6-(2,4-difluorobenzyl)-2-azaspiro[3.3]heptane-2-carbonyl]-2,5,7-triazaspiro[3.4]octan-6-one], 2.34 nM.
In turn, `CS(=O)(=O)c1ccc(CC2CC3(C2)CN(C(=O)N2CC4(CCC(=O)N4)C2)C3)cc1C(F)(F)F` [Example 39, 2-[6-[4-mesy1-3-(trifluoromethyl)benzyl]-2-azaspiro[3.3]heptane-2-carbonyl]-2,5-diazaspiro[3.4]octan-6-one] showed a 50% inhibitory concentration (IC50) of 2.38 nM.
In the case of `CS(=O)(=O)c1cc(CC2CC3(C2)CN(C(=O)N2CC4(CCC(=O)N4)C2)C3)ccc1C(F)(F)F` [Example 40, 2-[6-[3-mesyl-4-(trifluoromethyl)benzyl]-2-azaspiro[3.3]heptane-2-carbonyl]-2,5-diazaspiro[3.4]octan-6-one], it took 3.04 nM to reach half-maximal inhibition (IC50).
As to `CS(=O)(=O)c1cc(F)ccc1CC1CC2(C1)CN(C(=O)N1CC3(CCC(=O)N3)C1)C2` [Example 41, 2-[6-(4-fluoro-2-mesyl-benzyl)-2-azaspiro[3.3]heptane-2-carbonyl]-2,5-diazaspiro[3.4]octan-6-one], the IC50 was found to be 5.52 nM.
On the same count and under the same terms, in the case of `O=C1NCC2(CN(C(=O)N3CC4(CC(Cc5ccc(C(F)(F)F)nc5)C4)C3)C2)N1` [Example 42, 2-[6-[[6-(trifluoromethyl)-3-pyridyl]methyl]-2-azaspiro[3.3]heptane-2-carbonyl]-2,5,7-triazaspiro[3.4]octan-6-one] it was 53.4 nM.
On the same count and under the same terms, in the case of `O=C1NC2(CCO1)CN(C(=O)N1CC3(CC(Cc4cnc(C(F)(F)F)cn4)C3)C1)C2` [Example 43, 2-[6-[[5-(trifluoromethyl)pyrazin-2-yl]methyl]-2-azaspiro[3.3]heptane-2-carbonyl]-7-oxa-2,5-diazaspiro[3.5]nonan-6-one] it was 646 nM.
Still for that read-out and setting: next, `CS(=O)(=O)c1ccc(CC2CC3(C2)CN(C(=O)N2CC4(COC(=O)N4)C2)C3)cc1C(F)(F)F` [Example 44, 2-[6-[4-mesyl-3-(trifluoromethyl)benzyl]-2-azaspiro[3.3]heptane-2-carbonyl]-7-oxa-2,5-diazaspiro[3.4]octan-6-one]: 0.32 nM; `O=C1NCC2(CN(C(=O)N3CC4(CCC(Cc5ccc(C(F)(F)F)cn5)CC4)C3)C2)N1` [Example 45, 2-[7-[[5-(trifluoromethyl)-2-pyridyl]methyl]-2-azaspiro[3.5]nonane-2-carbonyl]-2,5,7-triazaspiro[3.4]octan-6-one]: 26.3 nM; `O=C1NC2(CO1)CN(C(=O)N1CC3(CCC(Cc4ccc(C(F)(F)F)cn4)C3)C1)C2` (stereo not drawn) [Example 46, 2-[6-[[5-(trifluoromethyl)-2-pyridyl]methyl]-2-azaspiro[3.4]octane-2-carbonyl]-7-oxa-2,5-diazaspiro[3.4]octan-6-one]: 0.15 nM.

Staying with this assay, now noted: unit nM.
Compound `O=C1NC2(CO1)CN(C(=O)N1CC3(CC(Cc4ccc(F)cc4C(F)(F)F)C3)C1)C2` [Example 22, 2-[6-[4-fluoro-2-(trifluoromethyl)benzyl]-2-azaspiro[3.3]heptane-2-carbonyl]-7-oxa-2,5-diazaspiro[3.4]octan-6-one] displayed an IC50 of under 5 nM.
The same measure, in the same setting: in the case of `O=C1NC2(CO1)CN(C(=O)N1CC3(CC(Cc4ccc(F)cc4F)C3)C1)C2` [Example 23, 2-[6-(2,4-difluorobenzyl)-2-azaspiro[3.3]heptane-2-carbonyl]-7-oxa-2,5-diazaspiro[3.4]octan-6-one] it was under 5 nM.
Regarding `O=C1NC2(CO1)CN(C(=O)N1CC3(CC(Cc4ccc(C(F)(F)F)cc4F)C3)C1)C2` [Example 24, 2-[6-[2-fluoro-4-(trifluoromethyl)benzyl]-2-azaspiro[3.3]heptane-2-carbonyl]-7-oxa-2,5-diazaspiro[3.4]octan-6-one], the IC50 is under 5 nM.

What is called IC50 is the concentration that gives 50% inhibition. Lower therefore signals greater potency in that assay.
